Laboratory results from ChEMBL document CHEMBL1201862, “PubChem BioAssay data set” (2004).
Activity calls are given as the source filed them.

How the values were obtained:
[1] = biological target: T1, Tyrosine-protein phosphatase non-receptor type 7 (Homo sapiens, UniProt P35236); assay type: functional
T1 sequence (P35236 whole entry): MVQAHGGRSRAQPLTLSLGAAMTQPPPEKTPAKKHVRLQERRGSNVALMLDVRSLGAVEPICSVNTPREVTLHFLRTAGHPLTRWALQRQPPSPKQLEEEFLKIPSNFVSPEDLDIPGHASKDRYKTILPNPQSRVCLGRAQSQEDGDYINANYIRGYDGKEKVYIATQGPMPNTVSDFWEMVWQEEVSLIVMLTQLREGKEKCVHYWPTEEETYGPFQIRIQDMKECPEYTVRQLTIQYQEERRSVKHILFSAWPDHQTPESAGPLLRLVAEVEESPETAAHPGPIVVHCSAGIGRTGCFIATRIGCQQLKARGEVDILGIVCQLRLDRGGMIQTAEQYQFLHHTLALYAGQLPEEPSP

[2] = biological target: Glyceraldehyde-3-phosphate dehydrogenase (Homo sapiens, UniProt P04406)
[3] = biological target: Heat shock cognate 71 kDa protein (Homo sapiens, UniProt P11142); test: In Vitro Hsc70 Dose Response Fluorescence Polarization Assay. [Related pubchem assays: 1072 ]
Chain of Heat shock cognate 71 kDa protein (P11142 whole entry): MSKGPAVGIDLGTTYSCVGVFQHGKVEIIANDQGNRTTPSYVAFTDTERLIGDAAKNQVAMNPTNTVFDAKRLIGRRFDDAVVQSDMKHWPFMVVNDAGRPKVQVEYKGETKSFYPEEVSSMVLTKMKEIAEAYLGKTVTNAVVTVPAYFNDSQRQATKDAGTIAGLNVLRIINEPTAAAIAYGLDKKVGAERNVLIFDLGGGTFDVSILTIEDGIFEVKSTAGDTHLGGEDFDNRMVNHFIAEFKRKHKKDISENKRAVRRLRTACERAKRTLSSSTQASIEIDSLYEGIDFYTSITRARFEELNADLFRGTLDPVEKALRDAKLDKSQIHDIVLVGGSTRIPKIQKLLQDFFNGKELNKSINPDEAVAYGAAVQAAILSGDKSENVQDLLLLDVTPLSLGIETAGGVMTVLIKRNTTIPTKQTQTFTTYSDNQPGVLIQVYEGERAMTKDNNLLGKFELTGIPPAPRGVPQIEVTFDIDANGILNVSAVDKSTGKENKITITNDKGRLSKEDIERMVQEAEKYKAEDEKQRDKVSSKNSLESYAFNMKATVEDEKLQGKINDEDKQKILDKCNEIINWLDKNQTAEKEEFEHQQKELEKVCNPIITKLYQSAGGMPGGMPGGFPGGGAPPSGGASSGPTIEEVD

[4] = biological target: Heat shock 70 kDa protein 1A (Homo sapiens, UniProt P0DMV8); test: inhibition of Hsp70 binding activity – biochemical, fluorescence polarization, SAR follow-up (AID 1072)
Chain of Heat shock 70 kDa protein 1A (P0DMV8 whole entry): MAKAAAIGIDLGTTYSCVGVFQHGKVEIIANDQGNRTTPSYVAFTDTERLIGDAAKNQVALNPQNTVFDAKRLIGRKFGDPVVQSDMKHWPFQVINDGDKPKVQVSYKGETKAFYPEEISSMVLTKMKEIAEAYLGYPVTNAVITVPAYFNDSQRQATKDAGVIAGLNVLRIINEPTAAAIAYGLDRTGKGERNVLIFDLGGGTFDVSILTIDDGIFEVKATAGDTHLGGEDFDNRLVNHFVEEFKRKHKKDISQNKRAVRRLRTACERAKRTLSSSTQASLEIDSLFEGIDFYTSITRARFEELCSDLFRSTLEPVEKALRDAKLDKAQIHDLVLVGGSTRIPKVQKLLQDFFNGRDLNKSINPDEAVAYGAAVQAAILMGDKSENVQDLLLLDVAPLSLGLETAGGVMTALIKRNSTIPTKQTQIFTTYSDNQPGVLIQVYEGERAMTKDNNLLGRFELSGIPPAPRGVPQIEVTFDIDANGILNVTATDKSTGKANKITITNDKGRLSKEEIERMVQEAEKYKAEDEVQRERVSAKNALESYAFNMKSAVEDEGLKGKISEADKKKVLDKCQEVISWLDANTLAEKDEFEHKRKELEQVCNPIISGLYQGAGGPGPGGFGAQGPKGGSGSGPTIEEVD

[5] = biological target: T2, Dual specificity protein phosphatase 6 (Rattus norvegicus, UniProt Q64346)
T2 sequence (Q64346 whole entry): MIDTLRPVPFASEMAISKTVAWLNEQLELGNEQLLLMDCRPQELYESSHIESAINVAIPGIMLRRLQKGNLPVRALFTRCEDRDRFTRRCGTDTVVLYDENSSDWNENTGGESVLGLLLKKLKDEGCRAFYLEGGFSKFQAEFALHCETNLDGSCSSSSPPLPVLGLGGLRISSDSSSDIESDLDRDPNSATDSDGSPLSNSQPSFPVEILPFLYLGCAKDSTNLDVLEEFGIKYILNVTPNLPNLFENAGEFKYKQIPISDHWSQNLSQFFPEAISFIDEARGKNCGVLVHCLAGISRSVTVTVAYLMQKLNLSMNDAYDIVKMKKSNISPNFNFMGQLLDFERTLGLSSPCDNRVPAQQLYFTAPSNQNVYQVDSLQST

[6] = biological target: T2, Dual specificity protein phosphatase 6; assay type: functional
[7] = biological target: C-C chemokine receptor type 6 (Homo sapiens, UniProt P51684); test: antagonism of CCR6 beta-arrestin recruitment – cell-based, luminescent beta-arrestin readout, dose response (AID 504728); assay type: functional
Chain of C-C chemokine receptor type 6 (P51684 whole entry): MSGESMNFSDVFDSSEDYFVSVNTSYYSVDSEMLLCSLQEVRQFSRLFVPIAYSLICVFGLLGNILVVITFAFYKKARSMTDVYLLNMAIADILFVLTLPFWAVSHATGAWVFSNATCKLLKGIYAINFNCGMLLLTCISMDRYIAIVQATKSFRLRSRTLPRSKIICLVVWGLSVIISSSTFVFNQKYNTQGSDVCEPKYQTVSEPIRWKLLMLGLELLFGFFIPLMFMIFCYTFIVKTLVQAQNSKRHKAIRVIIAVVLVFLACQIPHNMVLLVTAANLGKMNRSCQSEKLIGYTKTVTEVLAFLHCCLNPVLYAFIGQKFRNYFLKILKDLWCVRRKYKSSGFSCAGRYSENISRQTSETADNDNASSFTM

[8] = biological target: Beta-galactosidase (Escherichia coli, UniProt Q8VNN2); test: detection-enzyme interference by beta-gal modulators – biochemical, E. coli enzyme, set 3, artefact control for CCR6 antagonist project, dose response (AID 504712); assay type: functional
[9] = viability loss in THP-1 monocytes – THP-1 cells, cytotoxicity control for Vif-APOBEC3G degradation inhibitor project, dose response (AID 1117359); assay type: functional; details: THP-1
[10] = biological target: X-box-binding protein 1 (Homo sapiens, UniProt P17861); assay type: functional, Cricetulus griseus;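 note: confirmatory dose-response counter-screen serving a CHOP assay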
Chain of X-box-binding protein 1 (P17861 whole entry): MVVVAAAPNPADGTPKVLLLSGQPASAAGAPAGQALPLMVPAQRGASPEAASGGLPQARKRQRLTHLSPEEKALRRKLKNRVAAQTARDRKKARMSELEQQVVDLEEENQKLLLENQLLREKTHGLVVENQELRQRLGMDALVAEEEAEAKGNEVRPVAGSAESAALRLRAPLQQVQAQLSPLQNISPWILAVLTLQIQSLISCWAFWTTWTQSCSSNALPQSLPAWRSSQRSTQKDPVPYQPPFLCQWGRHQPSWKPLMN

[11] = biological target: DNA dC->dU-editing enzyme APOBEC-3A (Homo sapiens, UniProt P31941); test: A3A deaminase inhibition for selectivity – biochemical, dose response (AID 504722); assay type: functional
Chain of DNA dC->dU-editing enzyme APOBEC-3A (P31941 whole entry): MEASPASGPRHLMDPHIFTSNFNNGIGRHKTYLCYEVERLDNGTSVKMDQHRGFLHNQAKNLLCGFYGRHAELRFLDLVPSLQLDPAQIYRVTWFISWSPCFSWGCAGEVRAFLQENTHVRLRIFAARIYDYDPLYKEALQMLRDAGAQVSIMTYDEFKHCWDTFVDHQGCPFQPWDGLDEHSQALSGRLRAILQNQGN

[12] = biological target: DNA dC->dU-editing enzyme APOBEC-3G (Homo sapiens, UniProt Q9HC16); test: Dose Response confirmation of small molecule APOBEC3G DNA Deaminase Inhibitors via a fluorescence-based single-stranded DNA deaminase assay. [Related pubchem assays (depositor defined):AID493012, AID493028]; assay type: functional
Chain of DNA dC->dU-editing enzyme APOBEC-3G (Q9HC16 whole entry): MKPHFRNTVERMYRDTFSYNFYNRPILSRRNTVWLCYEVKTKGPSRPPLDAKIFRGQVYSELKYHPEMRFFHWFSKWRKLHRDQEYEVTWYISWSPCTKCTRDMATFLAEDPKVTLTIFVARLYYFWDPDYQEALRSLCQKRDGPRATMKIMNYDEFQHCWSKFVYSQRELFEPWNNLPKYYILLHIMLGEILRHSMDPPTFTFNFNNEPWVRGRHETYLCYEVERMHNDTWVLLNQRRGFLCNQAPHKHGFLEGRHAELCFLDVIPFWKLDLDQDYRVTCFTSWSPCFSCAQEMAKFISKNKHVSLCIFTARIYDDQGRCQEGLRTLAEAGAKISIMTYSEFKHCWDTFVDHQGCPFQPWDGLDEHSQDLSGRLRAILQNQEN

[13] = biological target: FAD-linked sulfhydryl oxidase ALR (Homo sapiens, UniProt P55789); test: ALR-catalysed DTT oxidation blockers – biochemical, H2O2 detection, luminescence, cherry-pick, dose response (AID 493248)
Chain of FAD-linked sulfhydryl oxidase ALR (P55789 whole entry): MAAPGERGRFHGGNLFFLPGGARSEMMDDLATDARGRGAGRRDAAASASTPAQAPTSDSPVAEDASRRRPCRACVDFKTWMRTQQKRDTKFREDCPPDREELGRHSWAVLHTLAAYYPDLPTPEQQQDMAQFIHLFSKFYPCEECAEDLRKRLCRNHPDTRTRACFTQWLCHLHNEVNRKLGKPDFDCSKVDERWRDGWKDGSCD

[14] = biological target: Cystic fibrosis transmembrane conductance regulator/Golgi-associated PDZ and coiled-coil motif-containing protein (Homo sapiens, UniProt P13569+Q9HD26); test: potency against CAL PDZ-peptide interaction – biochemical, fluorescence polarization, Cerulean-tagged CAL PDZ, cherry-picks, dose response (AID 504773)
[15] = biological target: G-protein coupled receptor 35 (Homo sapiens, UniProt Q9HC97); test: SAR analysis of Antagonists of the GPR35 Receptor using an Image-Based Assay - Set 5. [Related pubchem assays (depositor defined):AID2058, AID2079]; assay type: functional
Chain of G-protein coupled receptor 35 (Q9HC97 whole entry): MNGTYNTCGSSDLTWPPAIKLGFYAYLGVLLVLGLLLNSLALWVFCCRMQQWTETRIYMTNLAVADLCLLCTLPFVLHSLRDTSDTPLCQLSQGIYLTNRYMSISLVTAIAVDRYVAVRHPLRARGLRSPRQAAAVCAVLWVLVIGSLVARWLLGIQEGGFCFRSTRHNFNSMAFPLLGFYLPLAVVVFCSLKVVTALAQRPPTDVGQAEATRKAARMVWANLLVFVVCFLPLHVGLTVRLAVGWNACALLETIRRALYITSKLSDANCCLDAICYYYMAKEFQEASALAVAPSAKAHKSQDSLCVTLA

[16] = biological target: G-protein coupled receptor 55 (Homo sapiens, UniProt Q9Y2T6); test: SAR Analysis of Selective Antagonists of GPR55 using an Image-Based Assay - Set 3. [Related pubchem assays (depositor defined):AID2058, AID2079]; assay type: functional
[17] = NIH-3T3 fibroblast cytotoxicity, dose response, cytotoxicity control, cell-based, fluorescence, Alamar Blue, secondary assay (AID 2327); assay type: functional;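 note: NIH-3T3 mouse fibroblasts cultured with fluconazole at 8 µg/mL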
[18] = tested on: HEK293; test: inhibition of NOD1-driven NF-kB reporter – cell-based, luminescence, uHTS, primary screen (AID 1578); assay type: functional; details: Homo sapiens
[19] = tested on: HEK293; test: cells; assay type: functional, cell-based; details: Homo sapiens
[20] = fluconazole-exposed Candida albicans growth modulators – fluorescence, retest, confirmation (AID 2467); assay type: functional, cell-based
[21] = tested on: HEK293; test: cells; assay type: functional, cell-based; details: Homo sapiens; remark: listed apart in the source
[22] = biological target: Nucleotide-binding oligomerization domain-containing protein 2 (Homo sapiens, UniProt Q9HC29); test: inhibition of NOD2-driven NF-kB reporter – cell-based, luminescence, uHTS, HEK293 (AID 1566); assay type: functional
[23] = tested on: HEK293; test: NOD2 signaling inhibitors in MDP-stimulated cells, cell-based, uHTS, luminescence (AID 2001); assay type: functional; details: Homo sapiens
[24] = tested on: HEK293; test: cells; assay type: functional, cell-based; details: Homo sapiens; remark: listed apart in the source
[25] = tested on: Saccharomyces cerevisiae; test: S. cerevisiae Caspase-1/ASC signal blockers IC50, NALP1 inhibitor project selectivity test (AID 488863); assay type: functional, organism-based
[26] = biological target: NACHT, LRR and PYD domains-containing protein 1 (Homo sapiens, UniProt Q9C000); test: NALP1 inhibitors in yeast, dose response, luminescent (AID 488860); assay type: functional
Chain of NACHT, LRR and PYD domains-containing protein 1 (Q9C000 1-1212 limits assumed): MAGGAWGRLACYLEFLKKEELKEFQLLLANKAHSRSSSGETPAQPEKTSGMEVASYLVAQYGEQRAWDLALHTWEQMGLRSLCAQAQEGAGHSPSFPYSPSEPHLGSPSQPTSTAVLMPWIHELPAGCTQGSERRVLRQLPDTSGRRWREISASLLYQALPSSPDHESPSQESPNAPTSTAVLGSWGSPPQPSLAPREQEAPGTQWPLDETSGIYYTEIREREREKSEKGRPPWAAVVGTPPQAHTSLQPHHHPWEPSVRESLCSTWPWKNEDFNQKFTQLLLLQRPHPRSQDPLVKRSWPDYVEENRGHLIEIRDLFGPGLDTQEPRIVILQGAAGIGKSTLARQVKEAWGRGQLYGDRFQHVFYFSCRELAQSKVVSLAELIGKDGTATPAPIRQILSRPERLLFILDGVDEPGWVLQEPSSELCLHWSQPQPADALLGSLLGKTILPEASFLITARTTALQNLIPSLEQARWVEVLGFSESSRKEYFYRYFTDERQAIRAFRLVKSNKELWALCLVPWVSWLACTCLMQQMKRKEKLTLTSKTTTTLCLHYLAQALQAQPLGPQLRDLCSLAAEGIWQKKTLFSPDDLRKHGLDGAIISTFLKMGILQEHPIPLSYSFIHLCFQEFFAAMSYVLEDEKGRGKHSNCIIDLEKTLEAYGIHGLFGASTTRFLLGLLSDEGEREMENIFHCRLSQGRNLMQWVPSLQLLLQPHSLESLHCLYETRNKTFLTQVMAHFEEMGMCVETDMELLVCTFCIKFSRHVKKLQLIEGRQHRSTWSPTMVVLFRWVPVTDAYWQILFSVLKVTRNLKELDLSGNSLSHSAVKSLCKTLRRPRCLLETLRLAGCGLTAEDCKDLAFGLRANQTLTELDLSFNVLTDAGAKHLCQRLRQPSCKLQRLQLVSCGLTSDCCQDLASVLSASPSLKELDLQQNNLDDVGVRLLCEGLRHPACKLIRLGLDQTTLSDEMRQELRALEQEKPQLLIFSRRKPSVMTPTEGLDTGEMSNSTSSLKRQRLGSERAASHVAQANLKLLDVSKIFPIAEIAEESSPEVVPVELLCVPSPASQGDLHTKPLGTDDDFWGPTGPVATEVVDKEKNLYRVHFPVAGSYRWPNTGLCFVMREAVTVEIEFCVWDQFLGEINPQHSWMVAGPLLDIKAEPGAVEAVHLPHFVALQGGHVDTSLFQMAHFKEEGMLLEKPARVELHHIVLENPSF
Chain of NACHT, LRR and PYD domains-containing protein 1 (Q9C000 1213-1473 limits assumed): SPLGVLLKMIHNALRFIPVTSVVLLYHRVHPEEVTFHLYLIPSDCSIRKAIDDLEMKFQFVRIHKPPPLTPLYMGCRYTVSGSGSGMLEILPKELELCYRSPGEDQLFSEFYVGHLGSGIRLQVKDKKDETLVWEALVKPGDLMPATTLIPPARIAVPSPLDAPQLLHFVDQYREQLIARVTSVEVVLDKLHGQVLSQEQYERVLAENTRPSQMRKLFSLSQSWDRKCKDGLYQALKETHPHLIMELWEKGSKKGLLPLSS

[27] = biological target: T3, Microphthalmia-associated transcription factor (Homo sapiens, UniProt O75030); test: reducers of TRPM1 reporter luminescence, concentration series – cell-based, SK-MEL-5, cherry-picked, set 3, MITF inhibitor project, dose response (AID 493073); assay type: functional;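 note: SK-MEL-5 melanoma cells with luciferase driven by the MITF target TRPM1 promoter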
T3 sequence (O75030 whole entry): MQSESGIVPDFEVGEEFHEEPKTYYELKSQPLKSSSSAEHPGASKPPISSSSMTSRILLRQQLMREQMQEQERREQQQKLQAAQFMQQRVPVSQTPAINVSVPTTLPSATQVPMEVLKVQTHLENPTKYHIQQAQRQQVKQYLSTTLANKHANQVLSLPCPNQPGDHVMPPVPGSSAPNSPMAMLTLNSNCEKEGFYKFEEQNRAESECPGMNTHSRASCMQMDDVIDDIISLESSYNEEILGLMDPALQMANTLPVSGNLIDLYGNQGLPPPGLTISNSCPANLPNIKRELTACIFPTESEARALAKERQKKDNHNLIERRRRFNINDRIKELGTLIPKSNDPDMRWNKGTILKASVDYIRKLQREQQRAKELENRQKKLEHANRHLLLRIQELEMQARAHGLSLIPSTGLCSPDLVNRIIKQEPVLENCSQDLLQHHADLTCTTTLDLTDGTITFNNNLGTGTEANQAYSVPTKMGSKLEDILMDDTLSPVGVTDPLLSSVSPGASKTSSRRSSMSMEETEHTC

[28] = biological target: Neurotensin receptor type 1 (Homo sapiens, UniProt P30989); assay type: functional;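 note: Image-based confirmatory dose-response assay measuring agonist activity at NTR1; NTR1-expressing U2OS osteosarcoma cells imaged for beta-arrestin GFP spot formation; agonist potency where compounds increase beta-arrestin recruitment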
Chain of Neurotensin receptor type 1 (P30989 whole entry): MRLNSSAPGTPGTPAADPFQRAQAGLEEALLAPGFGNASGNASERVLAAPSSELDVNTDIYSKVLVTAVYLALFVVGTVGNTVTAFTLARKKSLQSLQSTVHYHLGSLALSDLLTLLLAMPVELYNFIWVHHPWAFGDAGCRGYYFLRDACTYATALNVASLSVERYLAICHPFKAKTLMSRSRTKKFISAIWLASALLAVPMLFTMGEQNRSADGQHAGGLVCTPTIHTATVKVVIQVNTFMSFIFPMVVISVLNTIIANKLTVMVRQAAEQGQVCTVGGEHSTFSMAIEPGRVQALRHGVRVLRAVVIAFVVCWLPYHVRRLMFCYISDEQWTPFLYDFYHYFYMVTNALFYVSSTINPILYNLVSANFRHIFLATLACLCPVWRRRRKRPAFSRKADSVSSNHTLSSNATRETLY

[29] = biological target: T4, Replicative DNA helicase DnaB (Mycobacterium tuberculosis, UniProt P9WMR3); test: DnaB intein splicing inhibitors, dose response, biochemical, cell-free fluorescence (AID 449749); assay type: functional
T4 sequence (P9WMR3 whole entry): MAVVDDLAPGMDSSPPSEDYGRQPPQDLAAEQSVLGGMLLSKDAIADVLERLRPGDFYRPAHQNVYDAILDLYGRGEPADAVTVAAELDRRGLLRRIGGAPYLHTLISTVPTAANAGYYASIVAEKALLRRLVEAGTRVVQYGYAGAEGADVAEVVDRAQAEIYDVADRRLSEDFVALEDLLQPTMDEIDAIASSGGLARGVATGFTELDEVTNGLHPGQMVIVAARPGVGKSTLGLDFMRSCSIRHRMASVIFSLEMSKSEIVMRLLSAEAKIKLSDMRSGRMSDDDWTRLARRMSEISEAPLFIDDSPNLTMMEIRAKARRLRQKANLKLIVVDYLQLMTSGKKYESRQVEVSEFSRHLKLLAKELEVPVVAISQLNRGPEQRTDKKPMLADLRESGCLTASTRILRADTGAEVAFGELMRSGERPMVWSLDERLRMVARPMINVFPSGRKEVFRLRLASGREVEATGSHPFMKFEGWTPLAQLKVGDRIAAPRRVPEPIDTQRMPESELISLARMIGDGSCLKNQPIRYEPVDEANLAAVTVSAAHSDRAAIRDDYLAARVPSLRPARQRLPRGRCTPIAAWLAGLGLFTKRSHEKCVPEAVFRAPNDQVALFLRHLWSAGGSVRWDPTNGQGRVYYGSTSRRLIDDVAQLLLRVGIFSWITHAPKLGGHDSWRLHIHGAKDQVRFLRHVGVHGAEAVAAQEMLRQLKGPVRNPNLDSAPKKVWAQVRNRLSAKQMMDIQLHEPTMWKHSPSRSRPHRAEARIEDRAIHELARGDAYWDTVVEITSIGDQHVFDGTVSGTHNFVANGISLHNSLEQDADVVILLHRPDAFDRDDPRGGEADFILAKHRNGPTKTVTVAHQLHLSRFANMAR

[30] = biological target: T5, Protein RecA (Mycobacterium tuberculosis, UniProt P9WHJ3); test: Fluorescence Cell-Free Homogeneous Dose Retest to Identify Inhibitors of RecA-Intein Splicing Activity. [Related pubchem assays (depositor defined):AID2097, AID2223, AID489010, AID492950]; assay type: functional
T5 sequence (P9WHJ3 whole entry): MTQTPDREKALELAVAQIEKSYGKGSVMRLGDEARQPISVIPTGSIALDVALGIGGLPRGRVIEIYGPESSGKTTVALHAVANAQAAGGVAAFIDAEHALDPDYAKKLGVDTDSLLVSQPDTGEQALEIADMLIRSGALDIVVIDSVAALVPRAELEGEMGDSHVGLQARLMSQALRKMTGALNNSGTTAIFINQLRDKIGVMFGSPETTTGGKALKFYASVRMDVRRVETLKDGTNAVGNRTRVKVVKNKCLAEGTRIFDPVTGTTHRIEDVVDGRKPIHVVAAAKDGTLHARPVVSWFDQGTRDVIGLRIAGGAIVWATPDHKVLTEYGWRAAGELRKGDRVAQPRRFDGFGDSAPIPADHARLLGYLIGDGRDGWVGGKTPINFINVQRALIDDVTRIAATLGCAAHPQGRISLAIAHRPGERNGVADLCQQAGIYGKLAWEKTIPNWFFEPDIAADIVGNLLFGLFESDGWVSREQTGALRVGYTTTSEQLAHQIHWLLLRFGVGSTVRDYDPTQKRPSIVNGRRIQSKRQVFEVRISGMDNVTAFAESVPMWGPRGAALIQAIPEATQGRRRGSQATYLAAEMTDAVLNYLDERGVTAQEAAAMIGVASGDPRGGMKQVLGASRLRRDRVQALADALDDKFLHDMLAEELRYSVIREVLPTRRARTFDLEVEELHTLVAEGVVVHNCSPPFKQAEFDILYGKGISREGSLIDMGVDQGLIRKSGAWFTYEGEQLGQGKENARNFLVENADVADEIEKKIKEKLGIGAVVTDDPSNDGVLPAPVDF

[31] = biological target: Voltage-dependent T-type calcium channel subunit alpha-1H (Homo sapiens, UniProt O95180); test: human CACNA1H calcium influx blockade – cell-based, synthetic library set 1, calcium flux (AID 493022); assay type: functional

SMILES: O=C(Oc1ccc2ccccc2c1)c1ccc2c(c1)C1C=CCC1C(C(=O)O)N2 (configuration not stated)
- IC50 [1]: 2.04 µM (active)
- IC50 [2]: 76.8 µM (active)
- IC50 [3]: 95.2 µM (active)
- IC50 [4]: 43.9 µM (active)
- IC50 [5]: 20.3 µM (active)
- IC50 [6]: 24.7 µM (active)

SMILES: CC(=O)OC(C)C1C2=C(C(=O)CC1(C)O)C(=O)c1c(ccc(-c3ccc4c(c3O)C(=O)C3=C(C4=O)C(C(C)OC(C)=O)C(C)(O)CC3=O)c1O)C2=O (configuration not stated)
- IC50 [7]: > 66.6 µM (inactive)
- IC50 [8]: > 66.6 µM (inactive)
- CC50 [9]: 19.3 µM (active)

SMILES: CNc1nc(Sc2cccc(C(F)(F)F)c2)cc(C(F)(F)F)n1
- Absolute IC50 (XBP1) [10]: 10 µM

SMILES: S=c1[nH]nc(-c2ccco2)n1C1CCCCC1
- IC50 [11]: > 100 µM (inactive)
- IC50 [12]: 4.08 µM (active)
- AC50 [13]: 5.64 µM (active)

SMILES: Nc1ncnc2c1C(c1ccccc1)c1c(ccc3ccccc13)O2 (configuration not stated)
- AC50 [14]: 11.2 µM (active)

SMILES: COC(=O)c1cnn(-c2ccc(F)cc2F)c1/C=N/NC(=S)Nc1ccccc1
- IC50 [15]: 0.379 µM (active)
- IC50 [16]: > 32 µM (inactive)

SMILES: Nc1ccc(Oc2cccc(Oc3ccc(N)cc3)c2)cc1
- EC50 [17]: > 150 µM (inactive)
- EC50 [18]: 5.94 µM (active)
- IC50 [19]: 1.61 µM (active)
- EC50 [20]: > 38 µM (not active)
- IC50 [21]: > 20 µM (inactive)
- EC50 [22]: 1.85 µM (active)
- IC50 [23]: 3.05 µM (active)
- IC50 [24]: 19.9 µM (active)
- IC50 [25]: 10.2 µM (active)
- IC50 [26]: 15.3 µM (active)
- AC50 [13]: 0.677 µM (active)
- AC50 [27]: 1.1 µM (active)

SMILES: CSc1nnc(NC(=O)C23CC4CC(CC(C4)C2)C3)s1
- EC50 [28]: 8.21 µM (active)
- AC50 [29]: > 380 µM (inactive)
- EC50 [30]: > 380 µM (inactive)

SMILES: CC(Oc1ccccc1)C(=O)Nc1nnc(-c2ccc3c(c2)CCCC3)o1 (configuration not stated)
- EC50 [31]: 1.3 µM (active)
